Measured values from patent publication US20040229246A1, “Diagnostic markers for therapeutic treatment” (Can-Fite Biopharam Ltd., priority 2002, published 2004).
Entries after “also recorded” stand apart in the source; their conditions may differ. Peptide text beside a SMILES is read from it. * marks the point of attachment. Cbz = O=C(OCc1ccccc1)*

What was measured:
[1] = tested on: PKA and GSK-3β; assay: Receptor functionality: Western blot of PKA and GSK-3β in B16-F10 melanoma cells; format: cell-based
Method: (§1) To detect the level of expression of the A3AR proteins Western blot analysis was performed. Cells were incubated in the presence and absence of IB-MECA (10 nM), MRS1523 (10 nM), Forskolin (50 nM), 8 Br cAMP (100 μM), Cycloheximide 20 μg/ml or MG 132 (20 nM) for different time periods at 37° C. Cells were then rinsed with ice-cold PBS and transferred to ice-cold lysis buffer (TNN buffer, 50 mM Tris buffer pH=7.5, 150 mM NaCl, NP 40). In the experiment examining the effect of trypsin on A3AR expression, cells were incubated with 0.5 ml of 0.25% trypsin for 5 minutes. The trypsinized cells were washed again with ice-cold PBS, harvested by centrifugation and subjected to lysis in TNN buffer. Cell debris was removed by centrifugation for 10 minutes, at 7500 xg. The supernatant was utilized for Western Blot analysis. Protein concentrations were determined using the Bio-Rad protein assay dye reagent. Equal amounts of the sample (50 μg) were separated by SDS-PAGE, using 12% polyacrylamide gels. The resolved proteins were then electroblotted onto nitrocellulose membranes (Schleicher & Schuell, Keene, NH, USA). Membranes were blocked with 1% bovine serum albumin and incubated with the desired primary antibody (dilution 1:1000) for 24 hours at 4° C. Blots were then washed and incubated with a secondary antibody for 1 hour at room temperature. Bands were recorded using BCIP/NBT color development kit (Promega, Madison, W1, USA). Data presented in the different figures are representative of at least three different experiments.
To test receptor functionality, the protein expression level of PKA and GSK-3β, which are modulated downstream to A3AR activation, was examined. Functional receptor sensitization by IB-MECA was observed after 15 and 60 minutes and was manifested by decreased PKA and increased GSK-3β levels. […] Indeed, the modulatory effect of IB-MECA on PKA and GSK-3β was reversed in the presence of the above agents (FIG. 8a, 8b and 8c).

[2] = biological target: T1, A3AR (Mus musculus, UniProt Q61618); assay: Western blot analysis of A3AR protein in B16-F10 melanoma cells; format: cell-based; conditions: B16-F10 melanoma cells exposed for 180 minutes to IB-MECA in the presence of the inhibitor
T1 construct: endogenous in cells; host or cells: B16-F10 melanoma cells
T1 sequence (Q61618 1-319): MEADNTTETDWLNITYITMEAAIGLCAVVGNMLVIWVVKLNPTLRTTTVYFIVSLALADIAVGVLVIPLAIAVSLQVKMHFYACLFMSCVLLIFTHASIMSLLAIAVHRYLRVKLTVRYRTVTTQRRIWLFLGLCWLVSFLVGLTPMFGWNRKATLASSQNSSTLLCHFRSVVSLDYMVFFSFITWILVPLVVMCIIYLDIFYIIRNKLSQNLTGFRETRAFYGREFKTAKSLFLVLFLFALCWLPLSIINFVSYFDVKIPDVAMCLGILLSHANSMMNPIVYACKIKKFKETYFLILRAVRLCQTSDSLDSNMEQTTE
Method: as §1
Receptor internalization by treating melanoma cells with trypsin, which removes the cell surface receptor, was examined.
Time dependent expression of A3AR in the melanoma cells was examined by Western blot analysis.

[3] = tested on: A3AR; assay: Northern blot analysis of A3AR mRNA in B16-F10 melanoma cells; format: cell-based; conditions: B16-F10 melanoma cells, antagonist with IB-MECA
Method: Total RNA was isolated from B16-F10 melanoma cells treated with IB-MECA, utilizing Tri-reagent (Sigma, Saint Louis). The samples were then subjected twice to phenol:chloroform extraction and washed with chloroform. RNA was precipitated with sodium acetate/ethanol following washing with ethanol, then denatured, separated (25 μg per lane) in 1.1% formaldehyde agarose gels and transferred to Hybond-N membrane. The 390 bp EcoRI fragment from A3AR cDNA clone of mouse (TAA3I.S), kindly supplied by Dr Kathia Ravid, was prepared by random-primed synthesis. Probes were used in RNA blot analysis at a hybridization temperature of 42° C. in the presence of 50% formamide.

[4] = tested on: adjuvant induced arthritis; assay: Adjuvant induced arthritis (AIA) in rats, clinical and histological score; format: in vivo; conditions: administered 30 minutes prior to IB-MECA
Method: AIA in Rats: Female Lewis rats, aged 8-12 weeks, obtained from Harlan Laboratories (Jerusalem, Israel), were injected subcutaneously (s.c.) at the tail base with 100 μl of suspension composed of incomplete Freund's adjuvant (IFA) with 10 mg/ml heat killed Mycobacterium tuberculosis, (Mt) H37Ra, (Difco, Detroit, USA). To assess the clinical disease activity score, the animals were inspected every second day for clinical arthritis. The scoring system ranged from 0-4 of each limb: 0-no arthritis; 1-redness or swelling of one toe/finger joint; 2-redness and swelling of more than one toe/finger joints; 3-the ankle and tarsal-metatarsal joints involvement; 4-entire paw redness or swelling. The arthritic score was calculated by adding the four individual legs' score to a maximum of 16. For histological scoring, Animals were sacrificed, the legs were removed up to the knee level, fixed in 10% formaldehyde, decalcified, dehydrated, paraffin-embedded, cut into 4 μm sections and stained by Hematoxylin-Eosin. The assessment of all pathologic findings were performed blind using semi-quantitative grading scales of 0 to 4 for the following parameters: a) extent of inflammatory cells' infiltration to the joint tissues; b) synovial lining cell hyperplasia; c) pannus formation; and d) joint cartilage layers destruction. […] TNF-α was measured in synovia, DLN and spleen tissues derived from control and CF101 treated rats. […] Protein concentrations were determined using the Bio-Rad protein assay dye reagent. […] Bands were recorded using BCIP/NBT color development kit (Promega, Madison, Wis., USA). Densitometry of protein expression was normalized against β-actin and expressed as % of control. […]

[5] = tested on: A3AR, A2AR, PI3K, PKB/Akt, IKKα/β, NF-κB, TNF-α, GSK-3β, caspase-3; assay: Western blot of A3AR and downstream signaling proteins in DLN and synovial tissue of AIA rats; format: in vivo; conditions: antagonist followed by IB-MECA

| Compound | modulatory effect of IB-MECA on PKA and GSK-3β in the presence of the agent [1] | effect on IB-MECA-induced modulation of A3AR protein expression [2] | further results |
| --- | --- | --- | --- |
| Nc1ncnc2c1nc(Br)n2[C@@H]1O[C@@H]2COP(=O)(O)O[C@H]2[C@H]1O [8-Br-cAMP] | reversed |  |  |
| CC(C)C[C@@H](C=O)NC(=O)[C@H](CC(C)C)NC(=O)[C@H](CC(C)C)NC(=O)OCc1ccccc1 [MG132] (Cbz-Leu-Leu-Leu-aldehyde) |  | prevented A3AR down-regulation |  |
| CCCOC(=O)c1c(-c2ccccc2)nc(CC)c(C(=O)SCC)c1CCC [MRS1523] | reversed |  | effect on IB-MECA-induced A3AR mRNA expression [3]: reversed the increase in mRNA expression |
| O=C(Cc1ccccc1)Nc1nc2ccc(Cl)cc2c2nc(-c3ccco3)nn12 [MRS 1220] |  |  | effect on the anti-inflammatory response of IB-MECA (clinical score) [4]: nullified; also recorded: nullification; effect on IB-MECA-induced A3AR modulation [5]: blocked this modulation |
| C[C@@H]1C[C@@H]([C@H](O)CC2CC(=O)NC(=O)C2)C(=O)[C@@H](C)C1 [cycloheximide] |  | inhibited receptor up-regulation |  |
